Reference: patent US5116960A, “Amphotericin B derivatives” (Beecham Group p.l.c., priority 1988, dated 1992)
Converted amounts (≈) assume the structure as drawn.

Columns and labels:
[1] = test system: Candida parapsilosis 937 A; experiment: Minimum Inhibitory Concentration (MIC) by broth dilution in microtitre tray, Candida parapsilosis 937 A; format: cell-based; conditions: 37° C., inoculum 10^5
Procedure: (§1) The Minimum Inhibitory Concentration (MIC) was determined by diluting the test compound in a broth medium in a microtitre tray. The organisms, which had been grown previously in a broth medium (yeast nitrogen base+1% glucose), were diluted and added to the wells to provide a final inoculum of approximately 10^5 colony-forming units per well. The trays were incubated at 37° C. and the turbidity of each well noted at intervals. The MIC was taken as the lowest concentration (in μg/ml) which prevented significant growth. |Minimum Inhibitory Concentration (μg/ml) |(determined after 2 and 3 days incubation) | *Inoculum 10^5 cells/ml

Candida albicans 73/079 = experiment: Minimum Inhibitory Concentration (MIC) by broth dilution in microtitre tray, Candida albicans 73/079; format: cell-based; conditions: 37° C., inoculum 10^5
Procedure: as §1

[2] = 48 h, determined after 2 days incubation
[3] = 72 h, determined after 3 days incubation
[4] = 48 h, Candida albicans 73/079, determined after 2 days incubation
[5] = 72 h, Candida albicans 73/079, determined after 3 days incubation

Row | Compound | MIC [1, 2] [µg/mL] | MIC [1, 3] [µg/mL] | MIC (Candida albicans 73/079; [4]) [µg/mL] | MIC (Candida albicans 73/079; [5]) [µg/mL]
1 | C[C@@H]1[C@H](O)[C@@H](C)/C=C/C=C/C=C/C=C/C=C/C=C/C=C/[C@H](O[C@@H]2O[C@H](C)[C@@H](O)[C@H](N)[C@@H]2O)C[C@@H]2OC(=C[C@H](O)[C@H]2CO)C[C@@H](O)C[C@@H](O)[C@H](O)CC[C@@H](O)C[C@@H](O)CC(=O)O[C@H]1C [Example E12] | 8 (≈ 8.97 µM) | 16 (≈ 17.9 µM) | 4 (≈ 4.48 µM) | 8 (≈ 8.97 µM)
2 | COC(=O)[C@H]1[C@@H]2C[C@@H](O[C@@H]3O[C@H](C)[C@@H](O)[C@H](N)[C@@H]3O)/C=C/C=C/C=C/C=C/C=C/C=C/C=C/[C@H](C)[C@@H](O)[C@@H](C)[C@H](C)OC(=O)C[C@H](O)C[C@H](O)CC[C@@H](O)[C@H](O)C[C@H](O)CC(=C[C@@H]1O)O2 [Example E10] | 32 (≈ 34.8 µM) | 32 (≈ 34.8 µM) | 16 (≈ 17.4 µM) | 32 (≈ 34.8 µM)
3 | C[C@@H]1[C@H](O)[C@@H](C)/C=C/C=C/C=C/C=C/C=C/C=C/C=C/[C@H](O[C@@H]2O[C@H](C)[C@@H](O)[C@H](N)[C@@H]2O)C[C@@H]2OC(=C[C@H](O)[C@H]2C(=O)O)C[C@@H](O)C[C@@H](O)[C@H](O)CC[C@@H](O)C[C@@H](O)CC(=O)O[C@H]1C [Example E6, 13,14-Anhydroamphotericin B] | 4 (≈ 4.41 µM) | 8 (≈ 8.83 µM) | 2 (≈ 2.21 µM) | 4 (≈ 4.41 µM)
